Experimental data: ChEMBL document CHEMBL1201862, “PubChem BioAssay data set” (2004)
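Growth conditions: 96-well plates. Treatment: test compound, 48 hours, 5 concentrations. Analysis: linear interpolation between bracketing concentrations; unreached endpoints set to highest concentration. GI50: concentration for 50% inhibition of growth.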 Active and inactive are the calls of the source. No stated cut-off is given here; in the data, active = GI50 up to about 1.1 µM and inactive = higher.

Legend:
Assay in all cases: inhibition of tumour cell growth, NCI panel, 48 h
[1] = test system: NCI-H226
[2] = test system: NCI-H460
[3] = test system: SK-OV-3
[4] = test system: A549
[5] = test system: KM-20L2
[6] = test system: HOP-62
[7] = test system: UO-31
[8] = test system: HOP-92
[9] = test system: ACHN
[10] = test system: CCRF-CEM
[11] = test system: HT-29
[12] = test system: LOX IMVI
[13] = test system: SK-MEL-5
[14] = test system: SF-295
[15] = test system: HCT-15
[16] = test system: KM12
[17] = test system: SNB-75
[18] = test system: DLD-1
[19] = test system: A498
[20] = test system: COLO 205
[21] = test system: DMS-114
[22] = test system: OVCAR-5
[23] = test system: UACC-62
[24] = test system: SNB-19
[25] = test system: NCI-H23
[26] = test system: RPMI-8226
[27] = test system: UACC-257
[28] = test system: HOP-18
[29] = test system: M14
[30] = test system: DMS-273
[31] = test system: SF-268
[32] = test system: RXF 631
[33] = test system: K562
[34] = test system: OVCAR-4
[35] = test system: SW-620
[36] = test system: SNB-78
[37] = test system: CAKI-1
[38] = test system: HL-60
[39] = test system: HCC 2998
[40] = test system: IGROV-1
[41] = test system: MOLT-4
[42] = test system: 786-0
[43] = test system: U-251
[44] = test system: M19-MEL
[45] = test system: OVCAR-3
[46] = test system: SR
[47] = test system: RXF 393
[48] = test system: EKVX
[49] = test system: SF-539
[50] = test system: HCT-116
[51] = test system: LXFL 529
[52] = test system: TK-10
[53] = test system: SN12C
[54] = test system: Malme-3M
[55] = test system: OVCAR-8
[56] = test system: NCI-H522
[57] = test system: XF498
[58] = test system: SK-MEL-28

Measured: GI50

Cc1oc2c(C)c3oc(=O)cc(C)c3cc2c1CN1C(=O)C2OCCOCCOCCOCCOCCO[C@H]2C1=O (some centres undefined)
> 100 µM: [15]
inactive: [1] > 100 µM | [2] > 100 µM | [3] > 100 µM | [4] > 100 µM | [5] > 100 µM | [6] > 100 µM | [7] > 100 µM | [8] > 100 µM | [9] > 100 µM | [10] > 100 µM | [11] > 100 µM | [12] > 100 µM | [13] > 100 µM | [14] > 100 µM | [16] > 100 µM | [17] > 100 µM | [18] > 100 µM | [19] > 100 µM | [20] > 100 µM | [21] > 100 µM | [22] > 100 µM | [23] > 100 µM | [24] > 100 µM | [25] > 100 µM | [26] > 100 µM | [27] > 100 µM | [28] > 100 µM | [29] > 100 µM | [30] > 100 µM | [31] > 100 µM | [32] 26.7 µM | [33] > 100 µM | [34] > 100 µM | [35] > 100 µM | [36] > 100 µM | [37] > 100 µM | [38] > 100 µM | [39] > 100 µM | [40] > 100 µM | [41] > 100 µM | [42] > 100 µM | [43] > 100 µM | [44] > 100 µM | [45] > 100 µM | [46] > 100 µM | [47] > 100 µM | [48] > 100 µM | [49] > 100 µM | [50] > 100 µM | [51] > 100 µM | [52] > 100 µM | [53] > 100 µM | [54] > 100 µM | [55] > 100 µM | [56] > 100 µM

CC1(C)C(=O)C(C)(C)C1=NNC(N)=S
> 100 µM: [15]
inactive: [1] > 100 µM | [2] > 100 µM | [3] > 100 µM | [4] > 100 µM | [5] > 100 µM | [6] > 100 µM | [7] > 100 µM | [8] > 100 µM | [9] > 100 µM | [11] > 100 µM | [12] > 100 µM | [13] > 100 µM | [14] > 100 µM | [16] > 100 µM | [17] > 100 µM | [20] > 100 µM | [21] > 100 µM | [57] > 100 µM | [22] > 100 µM | [23] > 100 µM | [24] > 100 µM | [25] > 100 µM | [26] > 100 µM | [27] > 100 µM | [29] > 100 µM | [30] > 100 µM | [31] > 100 µM | [32] > 100 µM | [33] > 100 µM | [34] > 100 µM | [58] > 100 µM | [35] > 100 µM | [36] > 100 µM | [37] > 100 µM | [38] > 100 µM | [39] > 100 µM | [40] > 100 µM | [41] > 100 µM | [42] > 100 µM | [43] > 100 µM | [44] > 100 µM | [45] > 100 µM | [46] > 100 µM | [47] > 100 µM | [49] > 100 µM | [50] > 100 µM | [51] > 100 µM | [52] > 100 µM | [53] > 100 µM | [54] > 100 µM | [55] > 100 µM | [56] > 100 µM
